Test results: ChEMBL document CHEMBL1777747, “Design and synthesis of an ER-specific fluorescent probe based on carboxylesterase activity with quinone methide cleavage process” (Bioorg Med Chem Lett, 2011); call rule not given here

How the values were obtained:
[1] = species on record: Sus scrofa; assay: Activity at porcine liver esterase assessed as amount of enzyme required to liberate 1 umol of resorufin/min from compound by fluorescence assay
[2] = biological target: T1, Cocaine esterase (Homo sapiens, UniProt O00748); assay: Activity at carboxylesterase in human HT-1080 cells assessed as accumulation of resorufin in nucleus at 50 uM after 120 mins by phase contrast microscopic analysis; type: ADME, cell-based; conditions: ht-1080, 2 h
T1 sequence (O00748 whole entry): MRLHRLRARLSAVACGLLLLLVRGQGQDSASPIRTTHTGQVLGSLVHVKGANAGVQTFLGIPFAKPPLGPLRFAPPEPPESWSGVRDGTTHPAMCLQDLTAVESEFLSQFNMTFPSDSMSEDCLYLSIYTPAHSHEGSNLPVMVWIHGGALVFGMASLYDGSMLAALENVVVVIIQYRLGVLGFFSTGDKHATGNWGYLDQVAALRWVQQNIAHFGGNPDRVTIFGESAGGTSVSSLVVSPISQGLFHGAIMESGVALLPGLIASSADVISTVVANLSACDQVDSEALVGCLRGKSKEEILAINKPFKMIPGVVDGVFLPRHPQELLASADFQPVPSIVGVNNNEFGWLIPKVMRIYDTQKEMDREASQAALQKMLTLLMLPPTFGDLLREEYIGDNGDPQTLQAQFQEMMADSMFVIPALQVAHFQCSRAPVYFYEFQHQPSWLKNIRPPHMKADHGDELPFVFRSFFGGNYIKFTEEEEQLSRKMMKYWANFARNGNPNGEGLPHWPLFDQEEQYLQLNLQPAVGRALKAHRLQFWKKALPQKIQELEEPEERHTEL

[3] = Activity at carboxylesterase in african green monkey COS1 cells assessed as accumulation of resorufin in nucleus at 50 uM after 120 mins by phase contrast microscopic analysis; type: ADME, cell-based; conditions: chlorocebus aethiops, cos-1, 2 h
[4] = biological target: T1, Cocaine esterase; assay: Activity at carboxylesterase in human HT-1080 cells assessed as accumulation of resorufin in endoplasmic reticulum at 50 uM after 120 mins by phase contrast microscopic analysis; type: ADME, cell-based; conditions: ht-1080, 2 h
[5] = Activity at carboxylesterase in african green monkey COS1 cells assessed as accumulation of resorufin in endoplasmic reticulum at 50 uM after 120 mins by phase contrast microscopic analysis; type: ADME, cell-based; conditions: chlorocebus aethiops, cos-1, 2 h
[6] = system: HT-1080; assay: Cytotoxicity against human HT1080 cells by trypan blue method; type: cell-based
[7] = system: COS-1; assay: Cytotoxicity against african green monkey COS1 cells by trypan blue method; type: cell-based; conditions: chlorocebus aethiops

Activity [1]: 0.05 U/mg | Activity [2]: Active | Activity [3]: Active | Activity [4]: Active | Activity [5]: Active
Compound: CCCC(=O)Oc1ccc(COc2ccc3nc4ccc(=O)cc-4oc3c2)cc1
Activity [6]: Non-toxic | Activity [7]: Non-toxic
